Source: US20020048585A1, “Methods of modulating wound healing and angiogenesis” (priority 2000, published 2002)

System: primary skin fibroblasts
Experiment: In vitro wound closure (migration) test in confluent fibroblast cultures
Type: cell-based, mouse
Details: medium (DMEM with 2% FBS) supplemented with 25 ng/ml; syndecan-4+/+, +/- and -/- fibroblasts
Experimental: Primary skin fibroblasts were isolated from newborn syndecan-4+/+, syndecan-4+/−, and syndecan-4−/− mice from the same litter. Mice were sacrificed, and their skins were removed, flattened, and floated on a 0.25% trypsin solution (Life Technologies Inc., Gaithersburg, Md., USA) at 4° C. overnight. The dermis was separated from the epidermis and dissociated by stirring at room temperature for 30 minutes in HBSS containing collagenase (500 μg/ml) (Life Technologies Inc.). The cell suspension of each skin was passed through a cell strainer (Becton Dickinson and Co., Franklin Lakes, N.J., USA) and transferred to a 10-cm cell culture dish and cultured as described previously (Saoncella et al.1999. Proc. Natl. Acad. Sci. USA. 96:2805-2810). Dermal fibroblasts were maintained at subconfluent densities and used between passages three and six.
Primary fibroblast cultures were established for 2 days in DMEM with 10% FBS followed by an overnight culture in DMEM with 2% FBS. In vitro wound closure tests were performed by creating clear lines in confluent cultures with a sterile yellow plastic pipette tip. After two washes with medium, the monolayers were covered with fresh medium and the migration of the cells into the cleared spaces was monitored over time. The control medium used during wound closure was DMEM with 2% FBS. […]

Substance | rate of wound closure
EGF: growth factor (Becton Dickinson) added to culture medium (NSDSECPLSHDGYCLHDGVCMYIEALDKYACNCVVGYIGERCQYRDLKWWELR; Epidermal growth factor; UniProt P01133 971-1023, looked up) | did not alter the rate of wound closure
FGF-2: growth factor, ligand of the FGF-2 receptor (R&D Systems), added to culture medium | did not alter the rate of wound closure
